Assay results as given in patent US20250108054A1, “METHODS FOR TREATING PERSISTENT OR CHRONIC IMMUNE THROMBOCYTOPENIA IN CHILDREN, ADOLESCENTS AND ADULTS BY ADMINISTERING (R)-2-[3-[4-AMINO-3-(2-FLUORO-4-PHENOXY-PHENYL)PYRAZOLO[3,4-D]PYRIMIDIN-1-YL]PIPERIDINE-1-CARBONYL]-4-METHYL-4-[4-(OXETAN-3-YL)PIPERAZIN-1-YL]PENT-2-ENENITRILE” (Principia Biopharma Inc., priority 2023, published 2025).
Read-outs that look alike come from different tables or passages of the source.

Experiments:
[1] = humans, oral administration; cited from earlier work
[2] = test system: adult patients with persistent or chronic ITP; experiment: LUNA 3 phase 3 double-blind placebo-controlled study; details: for Number of weeks with platelet counts 50 × 10^9/L, LSmean (SE) / Number of weeks with platelet counts between ≥30 × 10^9/L and <50 × 10^9/L and at least doubled from baseline, LSmean (SE): absence of rescue medication; for Time to platelet response, Median (95% CI): N = 133
251 kinases = experiment: broad kinase enzyme inhibition panel; assay type: biochemical; details: 1 μM; of 251 kinases
[3] = test system: patients with relapsed ITP; details: for median PVI: main treatment period
Fc receptor signaling = experiment: antibody (IgG, IgE) mediated activation of immune cells in vitro; assay type: cell-based
[4] = target: B cell lymphocyte kinase (BLK) (Homo sapiens, UniProt P51451); experiment: kinase enzyme inhibition, BLK; assay type: biochemical
Sequence of B cell lymphocyte kinase (BLK) (P51451 whole entry, species assumed): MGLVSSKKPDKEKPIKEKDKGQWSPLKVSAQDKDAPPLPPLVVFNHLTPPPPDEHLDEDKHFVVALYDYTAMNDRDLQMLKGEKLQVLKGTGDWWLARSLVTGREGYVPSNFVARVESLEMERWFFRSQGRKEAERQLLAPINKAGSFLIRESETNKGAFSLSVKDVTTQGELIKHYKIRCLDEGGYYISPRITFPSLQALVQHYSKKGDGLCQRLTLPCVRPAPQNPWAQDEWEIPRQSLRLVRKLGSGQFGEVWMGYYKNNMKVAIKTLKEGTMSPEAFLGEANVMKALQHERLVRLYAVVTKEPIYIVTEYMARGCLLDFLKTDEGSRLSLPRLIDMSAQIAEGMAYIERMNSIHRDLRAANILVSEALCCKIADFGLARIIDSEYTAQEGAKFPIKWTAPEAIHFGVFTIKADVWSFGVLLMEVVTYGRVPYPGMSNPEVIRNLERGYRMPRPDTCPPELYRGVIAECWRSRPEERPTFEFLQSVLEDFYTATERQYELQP

mouse model of ITP = experiment: mouse model of ITP; assay type: in vivo
[5] = target: T1, bone marrow tyrosine kinase on chromosome X (BMX) (Homo sapiens, UniProt P51813); experiment: kinase enzyme inhibition, BMX; assay type: biochemical
T1 sequence (P51813 1-675): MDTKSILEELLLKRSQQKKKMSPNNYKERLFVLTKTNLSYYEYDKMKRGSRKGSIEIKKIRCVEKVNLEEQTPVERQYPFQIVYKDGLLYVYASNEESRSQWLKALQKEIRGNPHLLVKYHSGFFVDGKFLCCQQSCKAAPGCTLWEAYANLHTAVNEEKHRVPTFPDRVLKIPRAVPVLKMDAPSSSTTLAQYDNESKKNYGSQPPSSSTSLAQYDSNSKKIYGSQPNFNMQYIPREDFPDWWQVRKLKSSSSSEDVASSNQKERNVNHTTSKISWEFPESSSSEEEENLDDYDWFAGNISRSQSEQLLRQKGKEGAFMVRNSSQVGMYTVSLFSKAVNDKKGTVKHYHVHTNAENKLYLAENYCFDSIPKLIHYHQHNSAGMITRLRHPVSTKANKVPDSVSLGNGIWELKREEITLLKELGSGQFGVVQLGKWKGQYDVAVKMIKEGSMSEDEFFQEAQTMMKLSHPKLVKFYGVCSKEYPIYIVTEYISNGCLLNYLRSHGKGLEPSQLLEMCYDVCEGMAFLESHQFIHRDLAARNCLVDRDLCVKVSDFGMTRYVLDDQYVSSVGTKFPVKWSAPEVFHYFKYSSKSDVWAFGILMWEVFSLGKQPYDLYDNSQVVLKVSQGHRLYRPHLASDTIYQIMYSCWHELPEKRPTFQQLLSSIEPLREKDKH

human B cell activation = human B cell activation in vitro; assay type: cell-based
[6] = target: T2, tyrosine protein kinase TEC (Homo sapiens, UniProt P42680); experiment: kinase enzyme inhibition, TEC; assay type: biochemical
T2 sequence (P42680 1-631): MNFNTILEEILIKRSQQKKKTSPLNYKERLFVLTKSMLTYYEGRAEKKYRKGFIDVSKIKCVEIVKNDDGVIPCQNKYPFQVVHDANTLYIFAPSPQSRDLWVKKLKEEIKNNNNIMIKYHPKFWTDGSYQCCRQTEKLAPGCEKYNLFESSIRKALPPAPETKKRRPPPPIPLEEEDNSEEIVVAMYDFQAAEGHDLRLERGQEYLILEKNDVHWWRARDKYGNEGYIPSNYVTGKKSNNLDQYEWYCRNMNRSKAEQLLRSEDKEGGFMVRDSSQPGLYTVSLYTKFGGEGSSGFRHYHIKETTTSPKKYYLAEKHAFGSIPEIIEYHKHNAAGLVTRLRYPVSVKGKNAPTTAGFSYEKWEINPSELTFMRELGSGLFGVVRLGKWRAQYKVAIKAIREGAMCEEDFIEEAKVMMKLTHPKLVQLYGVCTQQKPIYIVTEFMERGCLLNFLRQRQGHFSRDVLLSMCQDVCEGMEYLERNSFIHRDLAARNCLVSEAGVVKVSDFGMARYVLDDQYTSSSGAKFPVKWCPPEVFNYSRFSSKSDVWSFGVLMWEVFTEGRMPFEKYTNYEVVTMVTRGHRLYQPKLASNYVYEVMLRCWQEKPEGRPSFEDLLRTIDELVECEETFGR

[7] = target: T3, (Homo sapiens, UniProt P42681); experiment: kinase enzyme inhibition, RLK; assay type: biochemical
T3 sequence (P42681 1-527): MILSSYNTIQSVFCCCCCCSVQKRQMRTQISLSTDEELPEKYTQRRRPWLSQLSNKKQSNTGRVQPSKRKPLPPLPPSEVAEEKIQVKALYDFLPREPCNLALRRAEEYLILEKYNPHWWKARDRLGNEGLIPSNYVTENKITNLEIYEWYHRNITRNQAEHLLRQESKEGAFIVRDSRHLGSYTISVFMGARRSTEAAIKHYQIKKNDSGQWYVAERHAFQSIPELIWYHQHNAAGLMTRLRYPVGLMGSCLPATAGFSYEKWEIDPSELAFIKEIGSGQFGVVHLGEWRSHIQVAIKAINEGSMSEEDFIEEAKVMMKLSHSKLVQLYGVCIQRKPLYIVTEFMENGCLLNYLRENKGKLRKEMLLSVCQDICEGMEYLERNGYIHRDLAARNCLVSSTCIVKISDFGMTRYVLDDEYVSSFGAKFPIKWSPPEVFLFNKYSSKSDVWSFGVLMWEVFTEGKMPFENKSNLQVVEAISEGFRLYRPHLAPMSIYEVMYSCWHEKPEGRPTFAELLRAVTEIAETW

other TEC family members = experiment: preclinical assay of persistence of binding, other TEC family members
ERBB4 = ERBB4 (Homo sapiens, UniProt Q15303); experiment: kinase enzyme inhibition, ERBB4; assay type: biochemical
Sequence of ERBB4 (Q15303 26-1308, species assumed): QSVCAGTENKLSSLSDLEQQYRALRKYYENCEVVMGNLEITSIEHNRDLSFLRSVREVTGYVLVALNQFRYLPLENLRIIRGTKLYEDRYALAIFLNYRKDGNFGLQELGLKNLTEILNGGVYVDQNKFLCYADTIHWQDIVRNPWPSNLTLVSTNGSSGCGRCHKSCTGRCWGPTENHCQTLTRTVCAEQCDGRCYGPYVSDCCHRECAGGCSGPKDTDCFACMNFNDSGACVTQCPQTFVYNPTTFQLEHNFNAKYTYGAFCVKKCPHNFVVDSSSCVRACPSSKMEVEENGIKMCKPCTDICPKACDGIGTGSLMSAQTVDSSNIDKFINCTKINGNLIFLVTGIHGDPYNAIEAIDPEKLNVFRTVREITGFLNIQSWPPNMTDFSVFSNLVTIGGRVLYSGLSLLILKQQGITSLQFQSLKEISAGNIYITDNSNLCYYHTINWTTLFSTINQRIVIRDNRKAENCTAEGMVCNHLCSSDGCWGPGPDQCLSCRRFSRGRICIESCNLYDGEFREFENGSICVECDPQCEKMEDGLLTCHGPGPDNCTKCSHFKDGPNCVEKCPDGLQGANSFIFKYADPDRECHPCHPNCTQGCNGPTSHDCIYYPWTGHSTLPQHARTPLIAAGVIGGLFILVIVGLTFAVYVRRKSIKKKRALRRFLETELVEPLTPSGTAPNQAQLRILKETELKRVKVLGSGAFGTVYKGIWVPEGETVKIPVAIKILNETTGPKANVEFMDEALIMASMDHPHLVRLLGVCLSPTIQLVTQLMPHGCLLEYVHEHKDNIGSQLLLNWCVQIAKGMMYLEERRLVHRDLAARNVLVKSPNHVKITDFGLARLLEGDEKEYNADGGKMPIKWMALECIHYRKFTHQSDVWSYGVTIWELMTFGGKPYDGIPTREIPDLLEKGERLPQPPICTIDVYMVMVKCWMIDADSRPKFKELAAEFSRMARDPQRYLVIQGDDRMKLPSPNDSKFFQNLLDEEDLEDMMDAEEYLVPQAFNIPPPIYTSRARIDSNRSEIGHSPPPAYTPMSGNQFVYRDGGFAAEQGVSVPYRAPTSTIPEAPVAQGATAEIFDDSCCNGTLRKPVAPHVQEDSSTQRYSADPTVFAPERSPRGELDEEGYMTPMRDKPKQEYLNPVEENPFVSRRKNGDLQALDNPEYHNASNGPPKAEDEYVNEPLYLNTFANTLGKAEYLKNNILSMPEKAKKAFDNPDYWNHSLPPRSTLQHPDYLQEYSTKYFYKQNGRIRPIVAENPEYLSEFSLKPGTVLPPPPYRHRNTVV

platelet aggregation = details: healthy volunteers or patients with ITP; cited from earlier work
BTK enzyme = BTK enzyme (Homo sapiens, UniProt Q06187); details: healthy volunteers, doses providing 100% BTK occupancy; cited from earlier work
Sequence of BTK enzyme (Q06187 whole entry): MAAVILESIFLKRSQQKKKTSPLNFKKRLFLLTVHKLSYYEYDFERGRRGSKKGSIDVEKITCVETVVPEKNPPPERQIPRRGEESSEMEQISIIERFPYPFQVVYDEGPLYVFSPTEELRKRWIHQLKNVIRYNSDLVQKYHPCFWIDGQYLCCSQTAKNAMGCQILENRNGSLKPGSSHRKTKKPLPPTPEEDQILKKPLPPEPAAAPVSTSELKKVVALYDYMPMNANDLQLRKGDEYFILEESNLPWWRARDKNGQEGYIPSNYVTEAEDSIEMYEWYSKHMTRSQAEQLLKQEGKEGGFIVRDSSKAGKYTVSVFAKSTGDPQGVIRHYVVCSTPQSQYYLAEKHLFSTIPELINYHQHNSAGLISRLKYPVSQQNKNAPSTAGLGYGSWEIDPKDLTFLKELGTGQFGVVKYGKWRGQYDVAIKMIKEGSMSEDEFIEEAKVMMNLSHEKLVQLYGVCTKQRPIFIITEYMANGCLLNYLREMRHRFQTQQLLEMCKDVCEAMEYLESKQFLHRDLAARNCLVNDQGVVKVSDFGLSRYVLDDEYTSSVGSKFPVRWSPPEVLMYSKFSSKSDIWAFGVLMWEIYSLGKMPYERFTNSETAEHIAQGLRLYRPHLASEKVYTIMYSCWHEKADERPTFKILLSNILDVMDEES

adults with ITP = experiment: response to prior ITP medication of adults enrolled in LUNA 3; assay type: in vivo, human; details: patients who received that medication
Source text: Eligible patients had primary ITP for a duration of >3 months for adults (age ≥18 years) and >6 months for adolescent (age 12-17 years) and pediatric patients (age […]; EU only), and two average platelet counts <30×10^9/[…] within 2 weeks before treatment (Kuter et al. 2023).
Overall, 202 adults with a median age of 47 years (range, 18-80) enrolled from 154 study sites as of Sep. 28, 2023 (see Table 3); enrollment is complete for adults and ongoing for pediatrics. Most adults were female (63%), white (62%) or Asian (32%), and not Hispanic/Latino (77%). Geographic regions enrolling patients included Asia/Pacific (35% of patients), West Europe (24% of patients), South America (17% of patients), East Europe (16% of patients), and North America (8% of patients). Patients had ITP for a median duration of 7.7 years, with 75% having a duration >3 years. […] The most common prior ITP therapies were CS (96%), TPO-RA (66%), and IVIg ([…]); patients' prior responses are shown in Table 3.

ITP patients = details: cited from earlier work
[8] = 400 mg BID, 24-week blinded period
[9] = 400 mg BID, 24-week blinded period, listed as Rilzabrutinib

Compound: CC(C)(C=C(C#N)C(=O)N1CCC[C@@H](n2nc(-c3ccc(Oc4ccccc4)cc3F)c3c(N)ncnc32)C1)N1CCN(C2COC2)CC1 (mixture of isomers) [rilzabrutinib, (R)-2-[3-[4-amino-3-(2-fluoro-4-phenoxy-phenyl)pyrazolo[3,4-d]pyrimidin-1-yl]piperidine-1-carbonyl]-4-methyl-4-[4-(oxetan-3-yl)piperazin-1-yl]pent-2-enenitrile]
- absorption [1]: rapidly absorbed
- half-life [1]: 3 to 4 h
- day by which 25% of participants achieved a platelet response ([2]; 400 mg BID): 10 days
- median time to rescue therapy ([2]; 400 mg BID): never reached the median
- Number of weeks with platelet counts 50 × 10^9/L, LSmean Difference (95% CI) vs placebo [2, 8]: 6.46 (4.923, 7.990) weeks
- Number of weeks with platelet counts between ≥30 × 10^9/L and <50 × 10^9/L and at least doubled from baseline, LSmean Difference (95% CI) vs placebo [2, 8]: 6.31 (4.787, 7.831) weeks
- Number of weeks with platelet counts 50 × 10^9/L, LSmean (SE) [2, 8]: 7 weeks
- Number of weeks with platelet counts between ≥30 × 10^9/L and <50 × 10^9/L and at least doubled from baseline, LSmean (SE) [2, 8]: 7 weeks
- Number of weeks with platelet counts 50 × 10^9/L, LSmean (SE) [2, 9]: 7.18 (0.747) weeks
- Number of weeks with platelet counts between ≥30 × 10^9/L and <50 × 10^9/L and at least doubled from baseline, LSmean (SE) [2, 9]: 6.95 (0.749) weeks
- Durable response, Difference (95% CI) vs placebo ([2]; 400 mg BID, 24-week double-blind period): 23.1 (15.95, 30.31) %
- Time to platelet response, Median (95% CI) ([2]; 400 mg BID): 36 days
- Time to platelet response, Median (95% CI) ([2]; 400 mg BID, listed as Rilzabrutinib): 36 (22, 44) days
- tolerability ([2]; 400 mg BID, adult patients with ITP): generally well tolerated
- reduction in the need for rescue therapy ([2]; 400 mg BID, vs placebo): 52%
- ITP-PAQ physical fatigue score, Change from baseline, LSmean Difference (95% CI) vs placebo ([2]; At Week 13): 8.08 (1.818, 14.337)
- ITP-PAQ physical fatigue score, Change from baseline, LSmean (SE) ([2]; At Week 13, 400 mg BID): 7.95 (2.132)
- Bleeding as assessed by IBLS, Change from baseline, LSmean Difference (95% CI) vs placebo ([2]; At Week 25): −0.087 (−0.1358, −0.0373)
- ITP-PAQ physical fatigue score, Change from baseline, LSmean Difference (95% CI) vs placebo ([2]; At Week 25): 11.95 (5.416, 18.493)
- Bleeding as assessed by IBLS, Change from baseline, LSmean (SE) ([2]; At Week 25, 400 mg BID): −0.040 (0.0169)
- ITP-PAQ physical fatigue score, Change from baseline, LSmean (SE) ([2]; At Week 25, 400 mg BID): 4.69 (2.263)
- Bleeding as assessed by IBLS, Change from baseline, LSmean (SE) ([2]; At Week 25, 400 mg BID, listed as Rilzabrutinib): −0.040 (0.0169) ^
- TEAE diarrhea, participants ([2]; rilzabrutinib arm): 32.3%
- TEAE headache, participants ([2]; rilzabrutinib arm): 18%
- TEAE nausea, participants ([2]; rilzabrutinib arm): 20.3%
- number of kinases with >90% inhibition (251 kinases): 6
- tolerability ([3]; Part A): generally well tolerated
- bleeding (IBLS score) ([3]; Part B): no evidence of increased bleeding
- median platelet counts maintained ([3]; Part B, 400 mg BID, throughout main treatment period and LTE): ≥ 5e+10 µL⁻¹
- HRQOL ([3]; Part B, multiple individual and overall HRQOL health domains): Clinically meaningful improvements
- median PVI ([3]; non-responding patients): 3
- median PVI ([3]; responding patients): 2
- antibody (IgG, IgE) mediated activation of immune cells via Fc receptor signaling (Fc receptor signaling): blocks
- IC50 [4]: 6.3 nM
- platelet-loss (consumption) (mouse model of ITP): significant dose dependent reduction
- IC50 [5]: 1 nM
- human B cell activation (human B cell activation): profoundly inhibits
- IC50 [6]: 0.8 nM
- IC50 [7]: 1.2 nM
- binding to other TEC family members over time (other TEC family members): decayed rapidly over time
- IC50 (ERBB4): 11 nM
- effect on platelet aggregation (platelet aggregation): does not alter platelet aggregation

Compound: C=CC(=O)Nc1cccc(Nc2nc(Nc3ccc(OCCOC)cc3)ncc2F)c1 [CC-292]
- tolerability (BTK enzyme): well tolerated

Compound: COc1cc(Nc2ncc(F)c(Nc3ccc4c(n3)N(COP(=O)(O)O)C(=O)C(C)(C)O4)n2)cc(OC)c1OC [fostamatinib]
- Response to prior ITP medication (resulted in platelet count ≥50 × 10^9/L), % (adults with ITP): (30) %
- Response to prior ITP medication (resulted in platelet count ≥50 × 10^9/L), n/n (adults with ITP): 7/23
- durable response rate (ITP patients; heavily pretreated ITP patients): ~18%

Compound: Rituximab: Anti-CD20 monoclonal antibody, second line ITP therapy
- Response to prior ITP medication (resulted in platelet count ≥50 × 10^9/L), % (adults with ITP): (32) %
- Response to prior ITP medication (resulted in platelet count ≥50 × 10^9/L), n/n (adults with ITP): 22/68
- durable on-treatment response rates (ITP patients; ITP, second line therapy): 60-80%
